Assay results taken from patent US20060188921A1, “Methods for diagnosing and treating systemic lupus erythematosus disease and compositions thereof” (Wyeth, priority 2001, published 2006).

Test system: whole kidney samples, approximately 11,000 murine genes
Assay: Kidney gene expression on oligonucleotide arrays in murine model of autoimmune kidney disease (untreated, rapamycin-treated, anti-B7-treated)
Type: in vivo, NZB/NZW F1 mice
Conditions: Example 2(A); normalized = difference in expression of less than five versus untreated asymptomatic mice
Procedure: NZB/NZW F1 (B/W) mice develop an autoimmune kidney disease that is analogous to human systemic erythematosus. Mice, aged at intervals from 12 weeks (asymptomatic) to 42 weeks (diseased) were chosen to mimic the clinical presentation of patients with established SLE. By seven months of age, mice begin to develop nephritis characterized by proteinuria, anti-DNA antibody production and histopathologic changes in the kidney. […]
Labeled RNA was prepared from clones containing a T7 RNA polymerase promoter site by incorporating labeled ribonucleotides in an in vitro transcription (IVT) reaction. […] RNA was concentrated and then quantitated by spectrophotometry. […]
The labeled and fragmented RNA probes were diluted in 1×MES buffer, BIO948, Bio C, B cre, 100 μg/ml herring sperm DNA, and 50 μg/ml acetylated BSA. […] When biotin-labeled RNA was used, the hybridized RNA was stained with a streptavidin-phycoerythrin conjugate (Molecule Probes, Eugene, Oreg.) prior to reading. […] The arrays were again washed and stained with streptavidin SSPE-T prior to being reading. The arrays were read using a scanning confocal microscope made for Affymetrix by Molecular Dynamics (commercially available through Affymetrix, Santa Clara, Calif.). […]

CO[C@H]1C[C@@H]2CC[C@@H](C)[C@@](O)(O2)C(=O)C(=O)N2CCCC[C@H]2C(=O)O[C@H]([C@H](C)C[C@@H]2CC[C@@H](O)[C@H](OC)C2)CC(=O)[C@H](C)/C=C(\C)[C@@H](O)[C@@H](OC)C(=O)[C@H](C)C[C@H](C)/C=C/C=C/C=C/1C [rapamycin]
number of genes not normalized by rapamycin treatment: 23 genes
